{
  "source": "ChEMBL document CHEMBL1152774",
  "about": "“Inhibition of Trypanosoma brucei glucose-6-phosphate dehydrogenase by human steroids and their effects on the viability of cultured parasites” (Bioorg Med Chem, 2009)",
  "key": {"[1]": {"molecular_target": "T1, Glucose-6-phosphate 1-dehydrogenase (Trypanosoma brucei, UniProt Q9GRG7)", "T1 sequence (Q9GRG7 whole entry)": "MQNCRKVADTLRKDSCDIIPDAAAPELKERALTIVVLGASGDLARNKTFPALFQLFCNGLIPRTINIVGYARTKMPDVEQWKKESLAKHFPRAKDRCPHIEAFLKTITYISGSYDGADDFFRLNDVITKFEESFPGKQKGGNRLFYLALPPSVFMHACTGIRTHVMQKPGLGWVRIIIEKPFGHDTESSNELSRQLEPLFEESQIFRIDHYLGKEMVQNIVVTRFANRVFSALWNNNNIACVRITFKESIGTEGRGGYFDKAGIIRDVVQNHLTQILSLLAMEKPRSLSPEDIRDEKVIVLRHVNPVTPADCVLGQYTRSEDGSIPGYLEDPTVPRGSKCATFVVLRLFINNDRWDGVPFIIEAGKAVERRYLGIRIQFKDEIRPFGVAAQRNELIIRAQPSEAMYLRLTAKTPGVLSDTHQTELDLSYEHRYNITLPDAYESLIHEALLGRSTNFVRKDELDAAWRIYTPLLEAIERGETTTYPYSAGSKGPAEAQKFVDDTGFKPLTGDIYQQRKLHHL", "assay": "Inhibition of Trypanosoma brucei G6PDH using NADP as substrate by Lineweaver-Burke plot"}, "[2]": {"molecular_target": "T1, Glucose-6-phosphate 1-dehydrogenase", "assay": "Inhibition of Trypanosoma brucei G6PDH using glucose-6-phosphate as substrate by Lineweaver-Burke plot"}, "Trypanosoma brucei": {"system": "Trypanosoma brucei", "assay": "Trypanocidal activity against Trypanosoma brucei 427 bloodstream form after 48 hrs by MTS assay", "format": "functional", "conditions": "Trypanosoma brucei, 427, 48 h; read-out: LD50 (the source's name)"}, "[3]": {"molecular_target": "T2, Glucose-6-phosphate 1-dehydrogenase (Homo sapiens, UniProt P11413)", "T2 sequence (P11413 whole entry)": "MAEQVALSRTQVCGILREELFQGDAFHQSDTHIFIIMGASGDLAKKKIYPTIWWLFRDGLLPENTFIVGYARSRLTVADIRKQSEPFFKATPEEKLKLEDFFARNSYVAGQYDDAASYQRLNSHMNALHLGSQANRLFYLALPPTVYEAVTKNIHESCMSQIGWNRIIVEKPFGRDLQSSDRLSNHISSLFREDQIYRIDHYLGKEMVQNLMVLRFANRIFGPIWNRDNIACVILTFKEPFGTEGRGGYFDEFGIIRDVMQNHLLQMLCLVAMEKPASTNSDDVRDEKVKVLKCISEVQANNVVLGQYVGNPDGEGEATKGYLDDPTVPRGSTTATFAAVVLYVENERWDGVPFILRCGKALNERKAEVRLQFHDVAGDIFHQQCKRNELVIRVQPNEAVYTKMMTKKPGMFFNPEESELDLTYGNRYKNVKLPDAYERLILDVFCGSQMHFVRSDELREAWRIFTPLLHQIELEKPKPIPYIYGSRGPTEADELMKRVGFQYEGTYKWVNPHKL", "assay": "Inhibition of human G6PDH using NADP as substrate by Lineweaver-Burke plot"}, "[4]": {"molecular_target": "T2, Glucose-6-phosphate 1-dehydrogenase", "assay": "Inhibition of human G6PDH using glucose-6-phosphate as substrate by Lineweaver-Burke plot"}, "Leishmania mexicana": {"system": "Leishmania mexicana", "assay": "Antileishmanial activity against Leishmania mexicana early-metacyclic promastigotes up to 96 uM after 48 hrs by MTS assay", "format": "functional, organism-based"}},
  "note": "Activity calls are given as the source filed them. The rule behind the calls is not given here.",
  "data": [
    {"smiles": "C[C@]12CC[C@H](O)C[C@@H]1CC[C@@H]1[C@@H]2CC[C@]2(C)C(=O)CC[C@@H]12", "note": "[EPIANDROSTERONE]", "values": [
      {"measurement": "Ki", "setting": "[1]", "value": 0.46, "unit": "µM"},
      {"measurement": "Ki", "setting": "[2]", "value": 0.49, "unit": "µM"},
      {"measurement": "LC50", "setting": "Trypanosoma brucei", "value": 24.5, "unit": "µM"},
      {"measurement": "Ki", "setting": "[3]", "value": 3, "unit": "µM"},
      {"measurement": "Ki", "setting": "[4]", "value": 3.4, "unit": "µM"},
      {"measurement": "Activity", "setting": "Leishmania mexicana", "value": "inactive"}
    ]},
    {"smiles": "C[C@]12CC[C@H](O)CC1=CC[C@@H]1[C@@H]2CC[C@]2(C)C(=O)CC[C@@H]12", "note": "[PRASTERONE]", "values": [
      {"measurement": "Ki", "setting": "[1]", "value": 1.1, "unit": "µM"},
      {"measurement": "Ki", "setting": "[2]", "value": 1.7, "unit": "µM"},
      {"measurement": "LC50", "setting": "Trypanosoma brucei", "value": 43.8, "unit": "µM"},
      {"measurement": "Ki", "setting": "[3]", "value": 6.2, "unit": "µM"},
      {"measurement": "Ki", "setting": "[4]", "value": 8.9, "unit": "µM"},
      {"measurement": "Activity", "setting": "Leishmania mexicana", "value": "inactive"}
    ]}
  ]
}
